Measured values published in US20110172217A1, “RING-FUSED MORPHOLINE DERIVATIVE HAVING PI3K-INHIBITING ACTIVITY” (Shionogi & Co., Ltd., priority 2008, published 2011).

How the values were obtained:
PI-3 kinase γ = PI-3 kinase γ (Homo sapiens, UniProt P48736); experiment: PI3Kγ inhibitory activity, PI3-kinase HTRF assay (inhibition ratio); type: biochemical; settings: 0.5 h, compound at 50 μmol/L
Summary of the method: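 Human PI3Kγ was preincubated 10 min with compound and PIP2 substrate, then reacted 30 min at room temperature with ATP (40 μmol/L in the added solution); EDTA/biotin-PIP3 quenched. HTRF 665/620 nm ratio read after 18 h, normalized to no-compound (100%) and no-enzyme (0%) controls, gave % inhibition at 50 or 10 μmol/L compound.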

[1] = molecular target: T1, human ether-a-go-go related gene (hERG) channel (Homo sapiens, UniProt Q12809); experiment: hERG test, whole-cell patch-clamp, IKr; type: cell-based; settings: 1 μmol/L compound; HEK293 cell expressing hERG
T1 construct: expressed in transfected cells; host or cells: HEK293
Excerpt: For the purpose of risk evaluation of QT interval extension of electrocardiogram, the activity on delayed rectification K^+ current (IKr), which plays an important role in a cardiac ventricle repolarization process, was examined using the HEK293 cell that was made to express human ether-a-go-go related gene (hERG) channel.
Using an automatic patch-clamp system (PatchXpress 7000A, Axon Instruments Inc.), by a whole-cell patch-clamp method, after the cell was maintained at a membrane potential of −80 mV, IKr induced upon applying depolarizing stimulation of +50 mV for 2 seconds and further applying repolarizing stimulation of −50 mV for 2 seconds was recorded. After generated electric current became stable, a test substance dissolved at an intended concentration in extracellular fluid (137 mmol/L NaCl, 4 mmol/L KCl, 1.8 mmol/L CaCl2.2H2O, 1 mmol/L MgCl2.6H2O, 10 mmol/L glucose, 10 mmol/L HEPES (4-(2-hydroxyethyl)-1-piperazineethanesulfonic acid), pH=7.4) was applied to the cell for 10 minutes under room temperature condition. From the obtained IKr, the absolute value of the maximum tail current was measured using analysis software (DataXpress ver. 1, Molecular Devices Corporation) and the value of the electric current in a maintained membrane potential as baseline. Moreover, an inhibition ratio for the maximum tail current prior to the application of the test substance was calculated and then compared with a group of media-application (0.1% dimethylsulfoxide solution) to evaluate influence of the test substance on IKr.

[2] = Solubility test in artificial intestinal juice pH 6.8; type: physicochemical; settings: kinetic from dmso stock, artificial intestinal juice pH 6.8, 1% DMSO, 25° C.
Experimental: The solubility of a compound was determined under a condition in which 1% DMSO was added. 10 mmol/L compound solution was prepared using DMSO, and then 6 μL of the compound solution was added to 594 μL of artificial intestinal juice in pH 6.8 (to 250 mL of 0.2 mol/L potassium dihydrogen phosphate reagent solution was added 118 mL of 0.2 mol/L NaOH reagent solution and water to provide a final volume of 1000 mL). After standing at 25° C. for 16 hours, the mixed solution was filtered with suction. The filtrate was diluted twice with methanol/water (1/1), and then a concentration in the filtration was measured with HPLC or LC/MS/MS by the absolute calibration method.

[3] = Metabolic stability test, pooled human liver microsome; type: in vitro ADME; settings: 2 μmol/L compound; human liver microsome 0.5 mg protein/mL, NADPH, 37° C.
Experimental: After a subject compound was reacted for a certain time using a commercially available pooled human liver microsome, a reacted sample and an unreacted sample are compared to calculate a survival ratio, and then the degree of metabolism in the liver was evaluated.
0.2 mL of a buffer solution (50 mmol/L of Tris-HCl in pH 7.4, 150 mmol/L of potassium chloride, and 10 mmol/L of magnesium chloride) containing a human liver microsome of 0.5 mg protein/mL was reacted in the presence of 1 mmol/L NADPH at 37° C. for 0 or 30 minutes (oxidative reaction). After reacting, 50 μL of the reaction solution was added to 100 μL of a solution of methanol/acetonitrile (1/1 (v/v)), mixed, and then centrifuged at 3000 rpm for 15 minutes. The test compound in the supernatant was quantitated with LC/MS/MS. The amount of the compound at a reaction time of 0 minute was defined as 100% and, based on that, the percentage of the test compound remained after reacting for 30 minutes was calculated.

[4] = tested on: Salmonella typhimurium TA98 line, TA100 line; experiment: Fat Test (mutagenicity in Salmonella typhimurium); type: cell-based; parameters: key: When the mutagenicity is negative, the compound is shown as (−); When positive, the compound is shown as (+); settings: TA98 and TA100 lines, non-metabolism-activation and metabolism-activation conditions
Experimental: 20 μL of Salmonella enterica subsp. typhimurium (Salmonella typhimurium TA98 line, TA100 line) cryopreserved was inoculated to 10 mL of liquid nutrient medium (2.5% Oxoid nutrient broth No. 2) and then precultured at 37° C. for 10 hours with shaking. Regarding TA98 line, after 9 mL of a bacterial suspension was centrifuged (2000×g, 10 minutes) to remove the culture solution, the bacteria was suspended in 9 mL of Micro F buffer solution (K2HPO4: 3.5 g/L, KH2PO4: 1 g/L, (NH4)2SO4: 1 g/L, tri-sodium citric acid dihydrate: 0.25 g/L, MgSO4.7H2O: 0.1 g/L), and then added to 110 mL of Exposure media (Micro F buffer solution containing biotin: 8 μg/mL, histidine: 0.2 μg/mL, glucose: 8 mg/mL). Regarding TA 100 line, 120 mL of Exposure media was added to 3.16 mL of the bacterial suspension to prepare a test bacterial suspension. 12 μL of a solution of a test substance in DMSO (diluted eight times in a common ratio of 2 from the maximum dose of 50 mg/mL); 12 μL of DMSO as a negative control; 50 μg/mL 4-nitroquinoline-1-oxide solution in DMSO for TA98 line or 0.25 μg/mL 2-(2-furyl)-3-(5-nitro-2-furyl)acrylamide solution in DMSO as a positive control for TA 100 line in the case of a non-metabolism-activation condition; 12 μL of 40 μg/mL 2-aminoanthracene solution in DMSO for TA98 line or 20 μg/mL of 2-aminoanthracene solution in DMSO for TA100 line in the case of a metabolism-activation condition; were each mixed with 588 μL of the test bacterial suspension (in the case of a metabolism activation condition, a mixed solution of 498 μL of the test bacterial suspension and 90 μL S9 mix) and then cultured at 37° C. at 90 minutes with shaking. 460 μL of the bacterial suspension to which a test substance was exposed was mixed with 2300 μL of Indicator media (a Micro F buffer solution containing 8 μg/mL biotin, 0.2 μg/mL histidine, 8 mg/mL glucose, and 37.5 μg/mL bromocresol purple). […] Thus, in 48 wells per dose, the number of the bacteria-proliferation wells in which the color changed to yellow was counted, compared with a group of negative controls, and then evaluated. […]

CYP3A4 = molecular target: T2, CYP3A4 (Homo sapiens, UniProt P08684); experiment: CYP inhibition test, hydroxylation of terfenadine; type: in vitro ADME; settings: pooled human liver microsome; one of 5 kinds
T2 construct: enzyme: pooled human liver microsome 0.2 mg protein/mL; from tissue; host or cells: pooled human liver microsomes
Excerpt: (§1) O-de-ethylation of 7-ethoxyresorufin (CYP1A2), methyl-hydroxylation of tolbutamide (CYP2C9), 4′-hydroxylation of mephenyloin (CYP2C19), O-demethylation of dextromethorphan (CYP2D6), and hydroxylation of terfenadine (CYP3A4), which are typical substrate for metabolic reactions of human main CYP5 molecular species (CYP1A2, 2C9, 2C19, 2D6, and 3A4), were adopted as indexes.
(§2) The reaction conditions are as follows: substrate: 0.5 μmol/L of ethoxyresorufin (CYP1A2), 100 μmol/L of tolbutamide (CYP2C9), 50 μmol/L of S-mephenyloin (CYP2C19), […] of dextromethorphan (CYP2D6), and 1 μmol/L of terfenadine (CYP3A4); reaction time; 15 minutes; reaction temperature: 37° C.; enzyme: pooled human liver microsome 0.2 mg protein/mL; test drug concentration: 1, 5, 10, and 20 μmol/L (4 points).
(§3) In a 96-well plate, as a reaction solution, five kinds of substrates, a human liver microsome, and a test drug were added to 50 mmol/L Hepes buffer solution in the aforementioned ratio. A coenzyme NADPH was added to start a metabolic reaction, which is an index. After reacting at 37° C. for 15 minutes, a solution of methanol/acetonitrile (1/1 (v/v)) was added to quench the reaction. After centrifugation at 3000 rpm for 15 minutes, resorufin (CYP1A2 metabolite) in the supernatant was quantitated with a fluorescence multilabel counter, and hydroxylated tolbutamide (CYP2C9 metabolite), 4′-hydroxylated mephenyloin (CYP2C19 metabolite), […], terfenadine in alcohol form (CYP3A4 metabolite) were quantitated with LC/MS/MS.
(§4) The case wherein only DMSO (a solvent which dissolved a drug) was added to a reaction system was defined as a control (100%). When a test drug solution was added, the remaining activity (%) at each concentration was calculated, and then IC50 was calculated with a concentration and an inhibition ratio by an inverse estimation using a logistic model.

CYP2C19 = molecular target: T3, CYP2C19 (Homo sapiens, UniProt P33261); experiment: CYP inhibition test, 4′-hydroxylation of mephenyloin; type: in vitro ADME; settings: pooled human liver microsome; one of 5 kinds
T3 construct: enzyme: pooled human liver microsome 0.2 mg protein/mL; from tissue; host or cells: pooled human liver microsomes
Excerpt: as §1, §2, §3, §4

CYP2C9 = molecular target: T4, CYP2C9 (Homo sapiens, UniProt P11712); experiment: CYP inhibition test, methyl-hydroxylation of tolbutamide; type: in vitro ADME; settings: pooled human liver microsome; one of 5 kinds
T4 construct: enzyme: pooled human liver microsome 0.2 mg protein/mL; from tissue; host or cells: pooled human liver microsomes
Excerpt: as §1, §2, §3, §4

CYP1A2 = molecular target: T5, CYP1A2 (Homo sapiens, UniProt P05177); experiment: CYP inhibition test, O-de-ethylation of 7-ethoxyresorufin; type: in vitro ADME; settings: pooled human liver microsome; one of 5 kinds
T5 construct: enzyme: pooled human liver microsome 0.2 mg protein/mL; from tissue; host or cells: pooled human liver microsomes
T5 sequence (P05177 1-516): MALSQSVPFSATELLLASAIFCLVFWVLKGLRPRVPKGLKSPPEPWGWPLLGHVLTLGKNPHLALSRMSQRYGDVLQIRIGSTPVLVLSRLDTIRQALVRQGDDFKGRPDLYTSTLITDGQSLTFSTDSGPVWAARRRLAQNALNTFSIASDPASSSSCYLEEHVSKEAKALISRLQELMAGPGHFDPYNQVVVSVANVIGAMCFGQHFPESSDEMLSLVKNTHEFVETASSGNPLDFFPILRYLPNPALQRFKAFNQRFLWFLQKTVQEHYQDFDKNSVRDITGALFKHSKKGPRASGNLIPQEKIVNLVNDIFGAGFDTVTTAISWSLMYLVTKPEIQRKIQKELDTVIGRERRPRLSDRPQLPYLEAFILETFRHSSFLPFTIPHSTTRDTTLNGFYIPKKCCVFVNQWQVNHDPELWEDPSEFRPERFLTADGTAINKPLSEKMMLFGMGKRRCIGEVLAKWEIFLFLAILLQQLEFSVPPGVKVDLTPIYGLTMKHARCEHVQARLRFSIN
Excerpt: as §1, §2, §3, §4

CYP2D6 = molecular target: T6, CYP2D6 (Homo sapiens, UniProt P10635); experiment: CYP inhibition test, O-demethylation of dextromethorphan; type: in vitro ADME; settings: pooled human liver microsome; one of 5 kinds
T6 construct: enzyme: pooled human liver microsome 0.2 mg protein/mL; from tissue; host or cells: pooled human liver microsomes
Excerpt: as §1, §2, §3, §4

T1 sequence (Q12809 whole entry): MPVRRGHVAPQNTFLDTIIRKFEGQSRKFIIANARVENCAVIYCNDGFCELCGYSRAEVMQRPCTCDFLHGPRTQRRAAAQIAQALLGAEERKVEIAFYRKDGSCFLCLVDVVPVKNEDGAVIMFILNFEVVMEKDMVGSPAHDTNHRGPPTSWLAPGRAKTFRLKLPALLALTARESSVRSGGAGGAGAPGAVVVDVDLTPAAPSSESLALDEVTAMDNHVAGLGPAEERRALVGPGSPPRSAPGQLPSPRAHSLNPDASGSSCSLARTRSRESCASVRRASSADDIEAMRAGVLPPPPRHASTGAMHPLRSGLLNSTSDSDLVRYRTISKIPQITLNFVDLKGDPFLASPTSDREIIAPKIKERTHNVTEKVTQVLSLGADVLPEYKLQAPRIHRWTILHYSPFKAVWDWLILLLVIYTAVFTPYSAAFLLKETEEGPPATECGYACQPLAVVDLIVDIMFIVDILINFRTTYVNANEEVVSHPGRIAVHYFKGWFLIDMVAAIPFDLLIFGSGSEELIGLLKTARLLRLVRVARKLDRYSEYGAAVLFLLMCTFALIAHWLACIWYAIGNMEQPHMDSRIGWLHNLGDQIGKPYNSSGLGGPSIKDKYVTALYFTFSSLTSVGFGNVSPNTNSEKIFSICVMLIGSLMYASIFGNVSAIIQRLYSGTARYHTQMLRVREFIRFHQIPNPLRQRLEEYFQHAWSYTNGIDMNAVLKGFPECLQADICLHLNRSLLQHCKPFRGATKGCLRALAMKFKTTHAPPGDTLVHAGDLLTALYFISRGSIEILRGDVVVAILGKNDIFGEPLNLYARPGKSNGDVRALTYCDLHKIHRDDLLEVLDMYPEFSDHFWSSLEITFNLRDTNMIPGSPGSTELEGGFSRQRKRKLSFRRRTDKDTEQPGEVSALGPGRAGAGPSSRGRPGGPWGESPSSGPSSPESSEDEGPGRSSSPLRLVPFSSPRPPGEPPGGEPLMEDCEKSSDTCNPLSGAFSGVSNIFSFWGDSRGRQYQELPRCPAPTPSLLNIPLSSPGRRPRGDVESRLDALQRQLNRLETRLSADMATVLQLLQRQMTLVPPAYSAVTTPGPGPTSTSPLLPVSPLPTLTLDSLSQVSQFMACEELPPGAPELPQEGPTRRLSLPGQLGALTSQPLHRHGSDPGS
Sequence of PI-3 kinase γ (P48736 whole entry): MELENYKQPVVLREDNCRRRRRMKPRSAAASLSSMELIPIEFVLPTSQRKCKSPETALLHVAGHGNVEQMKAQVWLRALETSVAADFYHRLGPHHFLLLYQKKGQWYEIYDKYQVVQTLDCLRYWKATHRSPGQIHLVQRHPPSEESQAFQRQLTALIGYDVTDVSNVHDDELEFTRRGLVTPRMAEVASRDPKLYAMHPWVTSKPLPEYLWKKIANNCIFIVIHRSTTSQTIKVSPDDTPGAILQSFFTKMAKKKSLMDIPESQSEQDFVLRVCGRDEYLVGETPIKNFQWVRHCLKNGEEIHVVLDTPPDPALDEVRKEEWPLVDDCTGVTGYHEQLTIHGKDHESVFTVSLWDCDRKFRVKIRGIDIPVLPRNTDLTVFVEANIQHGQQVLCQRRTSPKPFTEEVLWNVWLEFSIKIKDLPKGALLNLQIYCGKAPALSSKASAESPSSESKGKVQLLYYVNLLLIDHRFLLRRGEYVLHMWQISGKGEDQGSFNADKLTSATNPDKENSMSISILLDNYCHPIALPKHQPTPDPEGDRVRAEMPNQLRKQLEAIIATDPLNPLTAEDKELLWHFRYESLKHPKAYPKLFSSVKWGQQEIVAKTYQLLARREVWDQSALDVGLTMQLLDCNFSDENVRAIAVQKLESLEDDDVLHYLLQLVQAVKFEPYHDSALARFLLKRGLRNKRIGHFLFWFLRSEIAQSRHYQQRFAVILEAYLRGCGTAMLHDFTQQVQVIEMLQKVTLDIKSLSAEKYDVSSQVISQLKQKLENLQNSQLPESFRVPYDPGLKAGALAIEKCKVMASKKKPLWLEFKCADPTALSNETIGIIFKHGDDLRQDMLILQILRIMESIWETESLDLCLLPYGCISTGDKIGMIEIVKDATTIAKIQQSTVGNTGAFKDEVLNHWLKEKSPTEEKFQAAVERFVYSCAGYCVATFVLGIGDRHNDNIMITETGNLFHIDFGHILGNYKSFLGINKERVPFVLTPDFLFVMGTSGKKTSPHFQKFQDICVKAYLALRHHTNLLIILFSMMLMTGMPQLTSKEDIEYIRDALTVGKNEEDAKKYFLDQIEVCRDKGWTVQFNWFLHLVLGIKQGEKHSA
T6 sequence (P10635 whole entry): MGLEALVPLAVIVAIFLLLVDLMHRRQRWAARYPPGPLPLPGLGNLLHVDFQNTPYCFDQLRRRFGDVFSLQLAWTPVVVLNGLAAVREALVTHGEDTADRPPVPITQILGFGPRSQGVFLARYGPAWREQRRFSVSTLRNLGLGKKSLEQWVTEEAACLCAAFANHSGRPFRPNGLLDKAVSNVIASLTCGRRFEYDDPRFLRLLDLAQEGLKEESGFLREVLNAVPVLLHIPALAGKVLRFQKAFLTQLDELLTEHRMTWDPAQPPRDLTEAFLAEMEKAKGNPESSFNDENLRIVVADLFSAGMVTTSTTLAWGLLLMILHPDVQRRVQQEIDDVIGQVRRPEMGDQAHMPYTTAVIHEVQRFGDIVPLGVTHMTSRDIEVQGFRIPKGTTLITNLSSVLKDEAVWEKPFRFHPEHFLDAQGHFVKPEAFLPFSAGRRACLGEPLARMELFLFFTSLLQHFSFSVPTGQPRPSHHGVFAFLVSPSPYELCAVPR
T3 sequence (P33261 whole entry): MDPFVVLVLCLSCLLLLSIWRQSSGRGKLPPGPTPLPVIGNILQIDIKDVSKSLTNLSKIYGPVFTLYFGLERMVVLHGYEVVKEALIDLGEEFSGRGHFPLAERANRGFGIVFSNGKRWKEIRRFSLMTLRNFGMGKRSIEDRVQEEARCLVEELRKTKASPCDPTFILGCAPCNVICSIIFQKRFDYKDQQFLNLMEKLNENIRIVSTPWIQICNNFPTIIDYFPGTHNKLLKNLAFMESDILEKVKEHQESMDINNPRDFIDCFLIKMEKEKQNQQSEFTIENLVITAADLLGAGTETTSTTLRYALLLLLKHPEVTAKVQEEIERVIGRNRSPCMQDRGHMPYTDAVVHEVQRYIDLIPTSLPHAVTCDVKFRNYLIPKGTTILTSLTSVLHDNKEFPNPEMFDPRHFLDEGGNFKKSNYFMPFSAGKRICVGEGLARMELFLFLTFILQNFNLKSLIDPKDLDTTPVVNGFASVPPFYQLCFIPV
T4 sequence (P11712 whole entry): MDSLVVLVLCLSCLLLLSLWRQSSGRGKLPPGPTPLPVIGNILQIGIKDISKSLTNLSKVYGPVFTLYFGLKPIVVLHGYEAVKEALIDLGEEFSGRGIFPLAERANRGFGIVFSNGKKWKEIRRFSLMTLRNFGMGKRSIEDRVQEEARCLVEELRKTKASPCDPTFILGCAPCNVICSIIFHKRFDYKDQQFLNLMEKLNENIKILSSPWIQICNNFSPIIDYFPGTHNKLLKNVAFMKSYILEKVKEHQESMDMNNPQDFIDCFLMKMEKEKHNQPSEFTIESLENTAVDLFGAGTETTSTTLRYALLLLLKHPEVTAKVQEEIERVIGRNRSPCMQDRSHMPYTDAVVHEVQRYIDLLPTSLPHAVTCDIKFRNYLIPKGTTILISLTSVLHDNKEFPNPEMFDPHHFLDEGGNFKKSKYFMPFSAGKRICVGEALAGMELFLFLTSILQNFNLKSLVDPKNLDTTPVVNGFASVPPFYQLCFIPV
T2 sequence (P08684 whole entry): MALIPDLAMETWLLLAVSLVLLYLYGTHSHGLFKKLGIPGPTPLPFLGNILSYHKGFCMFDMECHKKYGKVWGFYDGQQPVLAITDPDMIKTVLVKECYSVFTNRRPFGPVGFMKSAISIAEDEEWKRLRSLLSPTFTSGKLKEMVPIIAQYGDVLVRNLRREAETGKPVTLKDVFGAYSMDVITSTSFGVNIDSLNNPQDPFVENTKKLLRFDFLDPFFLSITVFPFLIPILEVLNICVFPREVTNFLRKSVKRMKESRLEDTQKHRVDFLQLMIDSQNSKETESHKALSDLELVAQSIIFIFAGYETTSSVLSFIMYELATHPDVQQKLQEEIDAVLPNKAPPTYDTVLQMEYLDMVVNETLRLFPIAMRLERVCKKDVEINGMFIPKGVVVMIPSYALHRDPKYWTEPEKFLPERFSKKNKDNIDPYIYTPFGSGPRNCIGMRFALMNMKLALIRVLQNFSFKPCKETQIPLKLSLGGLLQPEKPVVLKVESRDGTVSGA

inhibition at 50 µM (PI-3 kinase γ) [%] | solubility at 16 h [2] [µM] | percentage of test compound remained after reacting for 30 minutes [3] [%] | IC50 (CYP3A4) [µM] | IC50 (CYP2C19) [µM] | IC50 (CYP2C9) [µM] | IC50 (CYP1A2) [µM] | IC50 (CYP2D6) [µM] | Structure (SMILES) | hERG inhibition ratio for the maximum tail current (IKr) [1] [%] | mutagenicity [4]
≥ 95 | > 50 | 83 |  |  |  |  |  | O=C(O)c1ccc(Nc2cnc3c(c2)OCCN3C(=O)Nc2ccccc2)cc1 [Compound I-139] | 8.7 | 
≥ 95 | > 50 | 100 | > 20 | > 20 | > 20 | > 20 | > 20 | O=C(O)CNC(=O)Nc1cnc2c(c1)OCCN2C(=O)Nc1ccccc1 [Compound I-239] |  | 
≥ 95 | > 50 | 90.1 | > 20 | > 20 | > 20 | > 20 | > 20 | CC1(C)SC(N2CCOc3cccnc32)=NC1=O [Compound I-49] |  | 

Continued, compound first:

Structure (SMILES) | inhibition at 50 µM (PI-3 kinase γ) [%] | solubility at 16 h [2] [µM] | percentage of test compound remained after reacting for 30 minutes [3] [%] | IC50 (CYP3A4) [µM] | IC50 (CYP2C19) [µM] | IC50 (CYP2C9) [µM] | IC50 (CYP1A2) [µM] | IC50 (CYP2D6) [µM] | hERG inhibition ratio for the maximum tail current (IKr) [1] [%] | mutagenicity [4]
CC1SC(N2CCOc3cccnc32)=NC1=O (centres unmarked) [Compound I-1] | 87 | > 50 |  |  |  |  |  |  |  | (−)
O=C(O)c1cccc(Nc2cnc3c(c2)OCCN3C(=O)Nc2ccccc2)c1 [Compound I-138] |  | > 50 |  |  |  |  |  |  | 11.1 | (−)
O=C(O)c1ccc(-c2ccc3c(n2)N(C(=O)Nc2ccccc2)CCO3)s1 [Compound I-109] | ≥ 95 | > 50 |  |  |  |  |  |  | 1 | 
